Experimental data published in patent US20240285571A1, “METHODS OF TREATING BONE INFECTIONS” (MICROBION CORPORATION, priority 2020, published 2024).
Converted amounts (≈) assume the structure as drawn.

Legend:
Actinomyces turicensis = assay: MIC of baseline clinical isolates (Example 8); type: cell-based; conditions: Actinomyces turicensis baseline isolates (N′ = 1), central laboratory, mITT
Protocol: (§1) Microbiology was assessed on Day 1 and at the time of any subsequent surgical procedure at the index site. Samples were collected from the infected bone site or involved tissue adjacent to any implant(s), swabs of the deep infection site, and the superficial tissue/wound closure/sinus tract site. […] Parallel sets of samples were analyzed by the local clinical site laboratory to guide patient antibiotic treatment.

Anaerococcus murdochii = assay: MIC of baseline clinical isolates (Example 8); type: cell-based; conditions: Anaerococcus murdochii baseline isolates (N′ = 1), central laboratory, mITT
Protocol: as §1

Clostridium sphenoides = assay: MIC of baseline clinical isolates (Example 8); type: cell-based; conditions: Clostridium sphenoides baseline isolates (N′ = 1), central laboratory, mITT
Protocol: as §1

[1] = test system: Cutibacterium [Propionibacterium] acnes; assay: MIC of baseline clinical isolates (Example 8); type: cell-based; conditions: Cutibacterium (Proprionibacterium) acnes baseline isolates (N′ = 3), central laboratory, mITT
Protocol: as §1

F. magna = assay: MIC of baseline clinical isolates (Example 8); type: cell-based; conditions: Finegoldia magna baseline isolates (N′ = 4), central laboratory, mITT
Protocol: as §1

Peptoniphilus gorbachii = assay: MIC of baseline clinical isolates (Example 8); type: cell-based; conditions: Peptoniphilus gorbachii baseline isolates (N′ = 1), central laboratory, mITT
Protocol: as §1

[2] = test system: non-speciated Anaerococcus; assay: MIC of baseline clinical isolates (Example 8); type: cell-based; conditions: Anaerococcus non-speciated baseline isolates (N′ = 1), central laboratory, mITT
Protocol: as §1

[3] = test system: Corynebacterium amycolatum; assay: MIC of baseline clinical isolates (Example 8); type: cell-based; conditions: Corynebacterium amycolatum baseline isolates (N′ = 1), central laboratory, mITT
Protocol: (§2) Microbiology was assessed on Day 1 and at the time of any subsequent surgical procedure at the index site. Samples were collected from the infected bone site or involved tissue adjacent to any implant(s), swabs of the deep infection site, and the superficial tissue/wound closure/sinus tract site. Isolation and identification of aerobic and anerobic bacteria was conducted at a central microbiology laboratory (IHMA, Schaumburg, IL) and susceptibility of the isolates to MBN-101 (BisEDT) and comparator agents was performed per Clinical and Laboratory Standards Institute (CLSI). Parallel sets of samples were analyzed by the local clinical site laboratory to guide patient antibiotic treatment.

Corynebacterium jeikeium = assay: MIC of baseline clinical isolates (Example 8); type: cell-based; conditions: Corynebacterium jeikeium baseline isolates (N′ = 2), central laboratory, mITT
Protocol: as §2

[4] = test system: Corynebacterium resistens; assay: MIC of baseline clinical isolates (Example 8); type: cell-based; conditions: Corynebacterium resistens baseline isolates (N′ = 1), central laboratory, mITT
Protocol: as §2

Dermabacter hominis = assay: MIC of baseline clinical isolates (Example 8); type: cell-based; conditions: Dermabacter hominis baseline isolates (N′ = 1), central laboratory, mITT
Protocol: as §2

Streptococcus oralis = assay: MIC of baseline clinical isolates (Example 8); type: cell-based; conditions: Streptococcus oralis baseline isolates (N′ = 1), central laboratory, mITT
Protocol: as §2

[5] = test system: non-speciated Corynebacterium; assay: MIC of baseline clinical isolates (Example 8); type: cell-based; conditions: Corynebacterium non-speciated baseline isolates (N′ = 2), central laboratory, mITT
Protocol: as §2

M. abscessus (MABSC) = assay: MIC against CF isolates (Example 7, Table 18); type: cell-based, Mycobacterium abscessus complex; conditions: Mycobacteroides abscessus
S. aureus ATCC 29213 = conditions: per CLSI M100-S24 or provided by Microbion; cited from earlier work

Row | Structure (SMILES) | Mean MIC (Actinomyces turicensis) [µg/mL] | n (% resistant) (Actinomyces turicensis) | Mean MIC (Anaerococcus murdochii) [µg/mL] | n (% resistant) (Anaerococcus murdochii) | Mean MIC (Clostridium sphenoides) [µg/mL] | n (% resistant) (Clostridium sphenoides) | Mean MIC [1] [µg/mL] | n (% resistant) [1] | Mean MIC (F. magna) [µg/mL] | n (% resistant) (F. magna) | Mean MIC (Peptoniphilus gorbachii) [µg/mL] | n (% resistant) (Peptoniphilus gorbachii) | n (% resistant) [2] | further results
1 | Cc1ncc([N+](=O)[O-])n1CCO [MTZ] | 16.00 | 1 (100.0) n (%) | 1.00 | 0 (0.0) n (%) | 0.32 | 0 (0.0) n (%) | 16.00 | 3 (100.0) n (%) | 0.56 | 0 (0.0) n (%) | 0.50 | 0 (0.0) n (%) | 1 (100.0) n (%) | Mean MIC [2]: 16.00 µg/mL
2 | CCN1CCN(C(=O)N[C@@H](C(=O)N[C@@H]2C(=O)N3[C@@H]2SC(C)(C)[C@@H]3C(=O)O)c2ccccc2)C(=O)C1=O.C[C@]1(Cn2ccnn2)[C@H](C(=O)O)N2C(=O)C[C@H]2S1(=O)=O [TZP] | 1.00 | 0 (0.0) n (%) | 0.50 | 0 (0.0) n (%) | 16.00 | 0 (0.0) n (%) | 0.29 | 0 (0.0) n (%) | 0.34 | 0 (0.0) n (%) | 0.03 | 0 (0.0) n (%) | 0 (0.0) n (%) | Mean MIC [3]: 1.00 µg/mL; n (% resistant) [3]: 0 (0.0) n (%); Mean MIC (Corynebacterium jeikeium): 1.00 µg/mL; n (% resistant) (Corynebacterium jeikeium): 0 (0.0) n (%); Mean MIC [4]: 1.00 µg/mL; n (% resistant) [4]: 0 (0.0) n (%); Mean MIC (Dermabacter hominis): 0.50 µg/mL; n (% resistant) (Dermabacter hominis): 0 (0.0) n (%); Mean MIC (Streptococcus oralis): 0.06 µg/mL; n (% resistant) (Streptococcus oralis): 0 (0.0) n (%); Mean MIC [5]: 1.00 µg/mL; n (% resistant) [5]: 0 (0.0) n (%)
3 | CC[C@H]1OC(=O)[C@H](C)[C@@H](O[C@H]2C[C@@](C)(OC)[C@@H](O)[C@H](C)O2)[C@H](C)[C@@H](O[C@@H]2O[C@H](C)C[C@H](N(C)C)[C@H]2O)[C@](C)(OC)C[C@@H](C)C(=O)[C@H](C)[C@@H](O)[C@]1(C)O [Clarithromycin, reference compound] | – | – | – | – | – | – | – | – | – | – | – | – | – | MIC (M. abscessus (MABSC); strain AMT0068-40, M abscessus/massiliense complex): 1 µg/mL (≈ 1.34 µM); MIC (M. abscessus (MABSC); strain AMT0119-7, M abscessus/massiliense complex): 1 µg/mL (≈ 1.34 µM); MIC, acceptable range (S. aureus ATCC 29213): 0.12 to 0.5 µg/mL; MIC, expected results (S. aureus ATCC 29213): 0.25 µg/mL (≈ 0.334 µM)
